What all share (test): SelectScreen Kinase Profiling, single point inhibition and IC50 for off-target kinases
Format in all cases: biochemical

The target of test [1] is off-target kinases (Homo sapiens, UniProt O96017). As to conditions: CHEK2 (CHK2), ZLYTE, ATP Km app.
Test [2] has as its target T1, off-target kinases (Homo sapiens, UniProt Q8TD19).
T1 sequence (Q8TD19 1-979): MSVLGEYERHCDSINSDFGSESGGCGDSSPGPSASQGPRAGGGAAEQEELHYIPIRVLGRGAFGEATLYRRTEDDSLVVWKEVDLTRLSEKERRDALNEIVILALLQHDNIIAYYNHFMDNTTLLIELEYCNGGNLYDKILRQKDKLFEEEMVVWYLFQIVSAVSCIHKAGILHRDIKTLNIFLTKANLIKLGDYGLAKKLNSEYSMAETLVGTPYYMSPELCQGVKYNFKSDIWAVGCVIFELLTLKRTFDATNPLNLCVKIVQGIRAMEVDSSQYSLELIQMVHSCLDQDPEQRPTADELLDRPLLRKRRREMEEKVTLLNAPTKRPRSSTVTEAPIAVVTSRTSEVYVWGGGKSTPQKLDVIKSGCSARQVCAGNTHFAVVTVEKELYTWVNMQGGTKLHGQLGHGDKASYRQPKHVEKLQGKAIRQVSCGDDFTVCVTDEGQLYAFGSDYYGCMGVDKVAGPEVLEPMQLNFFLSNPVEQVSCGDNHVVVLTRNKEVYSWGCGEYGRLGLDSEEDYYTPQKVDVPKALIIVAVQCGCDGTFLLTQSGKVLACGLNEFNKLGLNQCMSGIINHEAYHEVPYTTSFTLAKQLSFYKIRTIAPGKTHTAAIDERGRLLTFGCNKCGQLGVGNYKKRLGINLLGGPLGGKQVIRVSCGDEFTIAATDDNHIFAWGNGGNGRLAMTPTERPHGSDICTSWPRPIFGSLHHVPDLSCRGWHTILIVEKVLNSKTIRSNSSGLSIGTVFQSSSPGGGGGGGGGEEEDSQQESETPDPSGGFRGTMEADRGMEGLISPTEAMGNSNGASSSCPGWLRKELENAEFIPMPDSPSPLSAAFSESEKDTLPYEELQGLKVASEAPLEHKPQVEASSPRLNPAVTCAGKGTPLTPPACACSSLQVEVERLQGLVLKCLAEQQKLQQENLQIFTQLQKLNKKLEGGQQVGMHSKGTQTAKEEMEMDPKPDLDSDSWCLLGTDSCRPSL
The conditions noted are these: NEK9, ATP Km app, ZLYTE.

Test [3] concerns the target off-target kinases (Homo sapiens, UniProt Q9Y2H1). The conditions noted are these: STK38L (NDR2), LanthaScreen Binding. (In general: TR-FRET usually uses a lanthanide donor and a delayed reading to cut background.)
The target in test [4] is off-target kinases (Homo sapiens, UniProt Q9NYL2). The conditions noted are these: ZAK, LanthaScreen Binding.
Sequence of off-target kinases (Homo sapiens, UniProt Q9NYL2) (Q9NYL2 whole entry): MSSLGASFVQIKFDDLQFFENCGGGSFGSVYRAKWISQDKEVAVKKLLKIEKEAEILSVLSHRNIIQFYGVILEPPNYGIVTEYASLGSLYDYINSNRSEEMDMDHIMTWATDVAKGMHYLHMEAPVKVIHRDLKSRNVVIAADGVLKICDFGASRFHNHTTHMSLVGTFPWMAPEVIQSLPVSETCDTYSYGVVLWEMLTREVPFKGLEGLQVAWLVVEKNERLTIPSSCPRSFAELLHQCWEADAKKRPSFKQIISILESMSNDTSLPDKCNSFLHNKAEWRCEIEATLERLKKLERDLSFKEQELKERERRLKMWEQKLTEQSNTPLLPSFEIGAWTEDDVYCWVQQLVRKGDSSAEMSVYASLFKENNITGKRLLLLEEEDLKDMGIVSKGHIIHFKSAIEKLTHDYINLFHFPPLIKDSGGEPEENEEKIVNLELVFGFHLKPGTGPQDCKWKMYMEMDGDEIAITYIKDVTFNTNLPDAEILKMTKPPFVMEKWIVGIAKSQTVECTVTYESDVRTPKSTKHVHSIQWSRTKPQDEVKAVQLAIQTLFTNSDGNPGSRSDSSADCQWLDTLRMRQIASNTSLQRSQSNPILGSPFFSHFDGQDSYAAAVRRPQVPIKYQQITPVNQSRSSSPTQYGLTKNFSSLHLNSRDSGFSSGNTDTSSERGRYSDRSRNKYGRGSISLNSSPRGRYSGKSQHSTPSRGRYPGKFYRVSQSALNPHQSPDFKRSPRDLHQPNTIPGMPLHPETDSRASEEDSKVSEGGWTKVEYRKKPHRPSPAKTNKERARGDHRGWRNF
Test [5] addresses off-target kinases (Homo sapiens, UniProt P31749). As to conditions: AKT1 (PKB alpha), ZLYTE, ATP Km app.
In test [6] the target is off-target kinases (Homo sapiens, UniProt Q9UBF8). The conditions noted are these: PI4KB (PI4K beta), Adapta, ATP Km app.
Sequence of off-target kinases (Homo sapiens, UniProt Q9UBF8) (Q9UBF8 whole entry): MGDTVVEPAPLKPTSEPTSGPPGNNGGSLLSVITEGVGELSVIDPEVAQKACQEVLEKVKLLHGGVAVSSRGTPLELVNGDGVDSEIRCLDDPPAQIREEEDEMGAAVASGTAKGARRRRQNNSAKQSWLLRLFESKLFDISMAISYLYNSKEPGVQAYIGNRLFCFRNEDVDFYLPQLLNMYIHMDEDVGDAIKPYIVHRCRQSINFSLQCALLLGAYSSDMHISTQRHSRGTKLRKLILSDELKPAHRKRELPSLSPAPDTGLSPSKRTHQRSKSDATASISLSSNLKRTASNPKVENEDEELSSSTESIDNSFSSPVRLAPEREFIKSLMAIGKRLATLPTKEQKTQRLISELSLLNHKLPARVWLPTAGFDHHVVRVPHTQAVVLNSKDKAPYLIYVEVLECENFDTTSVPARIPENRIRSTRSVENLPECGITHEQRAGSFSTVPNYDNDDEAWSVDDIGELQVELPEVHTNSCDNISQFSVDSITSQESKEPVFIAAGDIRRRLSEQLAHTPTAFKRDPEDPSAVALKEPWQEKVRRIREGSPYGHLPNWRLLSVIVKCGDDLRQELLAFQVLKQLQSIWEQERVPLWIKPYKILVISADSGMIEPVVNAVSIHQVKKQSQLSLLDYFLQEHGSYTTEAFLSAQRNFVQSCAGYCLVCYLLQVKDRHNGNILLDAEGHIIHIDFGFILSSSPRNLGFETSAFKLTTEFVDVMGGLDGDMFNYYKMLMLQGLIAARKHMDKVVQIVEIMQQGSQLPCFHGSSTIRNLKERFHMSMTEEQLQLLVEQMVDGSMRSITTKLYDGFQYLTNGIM
Test [7] has as its target off-target kinases (Homo sapiens, UniProt P10721, D820E). The conditions noted are these: KIT D820E, mutant y, LanthaScreen Binding.
Test [8] addresses off-target kinases (Homo sapiens, UniProt Q00536). As to conditions: CDK16 (PCTK1)/cyclin Y, LanthaScreen Binding.

The structures appear in SMILES notation. Where two headings read alike, the source gives them in different places.

Sequence of off-target kinases (Homo sapiens, UniProt Q9Y2H1) (Q9Y2H1 whole entry): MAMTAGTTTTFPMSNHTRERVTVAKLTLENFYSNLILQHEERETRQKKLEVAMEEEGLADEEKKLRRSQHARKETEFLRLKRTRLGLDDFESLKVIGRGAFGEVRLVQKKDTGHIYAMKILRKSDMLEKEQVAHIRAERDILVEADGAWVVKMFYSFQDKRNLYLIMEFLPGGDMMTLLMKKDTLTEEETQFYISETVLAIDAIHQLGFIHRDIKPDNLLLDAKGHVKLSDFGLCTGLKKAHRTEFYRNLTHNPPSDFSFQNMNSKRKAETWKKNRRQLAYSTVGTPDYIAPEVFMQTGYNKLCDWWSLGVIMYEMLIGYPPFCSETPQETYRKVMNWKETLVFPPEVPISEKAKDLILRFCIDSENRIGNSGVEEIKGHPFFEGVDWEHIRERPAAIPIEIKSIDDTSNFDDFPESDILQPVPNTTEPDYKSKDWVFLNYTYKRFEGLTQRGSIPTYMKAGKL
Sequence of off-target kinases (Homo sapiens, UniProt P10721, D820E) (P10721 26-976 D820E): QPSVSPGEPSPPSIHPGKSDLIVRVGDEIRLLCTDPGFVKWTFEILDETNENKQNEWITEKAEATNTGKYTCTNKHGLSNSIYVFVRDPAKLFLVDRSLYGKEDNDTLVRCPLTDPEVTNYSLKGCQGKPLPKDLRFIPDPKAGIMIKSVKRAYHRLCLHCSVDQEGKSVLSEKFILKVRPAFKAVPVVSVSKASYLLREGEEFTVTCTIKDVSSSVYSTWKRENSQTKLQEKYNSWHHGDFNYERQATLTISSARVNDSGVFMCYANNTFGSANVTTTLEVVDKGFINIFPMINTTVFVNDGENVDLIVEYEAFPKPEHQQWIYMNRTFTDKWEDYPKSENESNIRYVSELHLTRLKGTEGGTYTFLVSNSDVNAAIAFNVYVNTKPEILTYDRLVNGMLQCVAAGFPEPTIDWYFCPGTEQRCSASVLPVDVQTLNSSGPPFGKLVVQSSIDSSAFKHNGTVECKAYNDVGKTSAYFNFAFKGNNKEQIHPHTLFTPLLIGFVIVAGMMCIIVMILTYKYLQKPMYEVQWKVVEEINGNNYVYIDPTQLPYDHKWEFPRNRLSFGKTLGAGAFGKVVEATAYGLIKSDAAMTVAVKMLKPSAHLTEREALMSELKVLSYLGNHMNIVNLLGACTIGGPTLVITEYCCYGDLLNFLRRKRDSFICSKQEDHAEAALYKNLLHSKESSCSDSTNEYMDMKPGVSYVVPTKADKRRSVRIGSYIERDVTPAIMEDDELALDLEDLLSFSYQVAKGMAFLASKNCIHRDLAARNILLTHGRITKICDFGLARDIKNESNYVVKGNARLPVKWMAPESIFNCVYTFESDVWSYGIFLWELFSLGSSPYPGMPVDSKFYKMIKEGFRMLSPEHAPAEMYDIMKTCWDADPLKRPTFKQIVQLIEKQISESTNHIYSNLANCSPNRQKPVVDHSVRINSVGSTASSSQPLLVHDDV
Sequence of off-target kinases (Homo sapiens, UniProt P31749) (P31749 whole entry): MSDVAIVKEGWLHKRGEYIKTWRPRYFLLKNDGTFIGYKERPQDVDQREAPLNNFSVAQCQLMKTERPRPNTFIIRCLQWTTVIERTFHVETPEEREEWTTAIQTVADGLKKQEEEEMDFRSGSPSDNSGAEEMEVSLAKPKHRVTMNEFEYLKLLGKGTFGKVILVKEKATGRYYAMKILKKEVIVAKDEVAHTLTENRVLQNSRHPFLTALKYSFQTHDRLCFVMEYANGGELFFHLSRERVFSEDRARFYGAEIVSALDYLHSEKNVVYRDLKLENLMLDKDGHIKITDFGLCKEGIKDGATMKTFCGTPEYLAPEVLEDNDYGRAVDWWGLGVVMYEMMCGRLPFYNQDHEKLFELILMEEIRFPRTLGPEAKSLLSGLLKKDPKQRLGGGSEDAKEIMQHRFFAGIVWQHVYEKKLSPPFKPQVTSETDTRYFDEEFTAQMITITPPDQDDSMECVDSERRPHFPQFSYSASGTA
Sequence of off-target kinases (Homo sapiens, UniProt O96017) (O96017 whole entry): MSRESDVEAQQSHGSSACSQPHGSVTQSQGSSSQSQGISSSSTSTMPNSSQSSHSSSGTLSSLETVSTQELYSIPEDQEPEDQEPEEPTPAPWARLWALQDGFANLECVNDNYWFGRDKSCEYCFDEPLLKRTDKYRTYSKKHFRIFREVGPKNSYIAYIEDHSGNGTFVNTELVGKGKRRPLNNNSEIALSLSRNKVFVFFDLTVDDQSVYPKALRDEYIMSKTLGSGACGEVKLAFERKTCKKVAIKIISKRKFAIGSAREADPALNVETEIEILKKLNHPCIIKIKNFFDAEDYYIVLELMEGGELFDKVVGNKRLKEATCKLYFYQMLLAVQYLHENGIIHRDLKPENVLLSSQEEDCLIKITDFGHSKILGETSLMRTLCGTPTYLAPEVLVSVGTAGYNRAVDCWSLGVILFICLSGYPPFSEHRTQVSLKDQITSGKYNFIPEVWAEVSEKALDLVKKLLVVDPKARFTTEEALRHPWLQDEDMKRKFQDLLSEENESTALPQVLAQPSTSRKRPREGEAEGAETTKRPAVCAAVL
Sequence of off-target kinases (Homo sapiens, UniProt Q00536) (Q00536 whole entry): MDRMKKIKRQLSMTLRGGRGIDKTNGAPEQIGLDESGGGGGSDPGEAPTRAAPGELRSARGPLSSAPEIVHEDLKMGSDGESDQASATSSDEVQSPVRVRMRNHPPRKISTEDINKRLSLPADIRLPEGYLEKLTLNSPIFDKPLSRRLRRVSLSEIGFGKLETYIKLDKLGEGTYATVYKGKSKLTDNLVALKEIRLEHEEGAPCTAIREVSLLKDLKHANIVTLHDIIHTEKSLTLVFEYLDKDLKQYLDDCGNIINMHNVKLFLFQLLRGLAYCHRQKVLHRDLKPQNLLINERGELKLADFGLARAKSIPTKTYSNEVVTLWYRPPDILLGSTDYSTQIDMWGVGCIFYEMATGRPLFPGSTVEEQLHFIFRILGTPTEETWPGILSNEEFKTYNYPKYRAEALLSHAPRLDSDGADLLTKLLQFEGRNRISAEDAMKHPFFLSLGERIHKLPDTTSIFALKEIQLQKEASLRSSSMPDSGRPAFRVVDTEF

For the compound `N#Cc1cc(-c2ncnc(Nc3ccc(N4CCN(C5COC5)CC4)cc3)n2)ccc1OC1CCOCC1` [Compound 1, 5-(4-((4-(4-(oxetan-3-yl)piperazin-1-yl)phenyl)amino)-1,3,5-triazin-2-yl)-2-((tetrahydro-2H-pyran-4-yl)oxy)benzonitrile], the inhibition (usually the percentage by which the read-out fell short of the control) at off-target kinases [1] (read-out: % Inhibition 1) came to 27%; at off-target kinases [1] (read-out: % Inhibition 2) it was 27%; on off-target kinases [1] (read-out: % Inhibition Avg) it was 27%; on off-target kinases [2] (read-out: % Inhibition 1) it was 46%; on off-target kinases [2] (read-out: % Inhibition 2), 45%; at off-target kinases [2] (read-out: % Inhibition Avg), 46%. Also, the inhibition at off-target kinases [3] (read-out: % Inhibition 1) is 30%; on off-target kinases [3] (read-out: % Inhibition 2), 38%; on off-target kinases [3] (read-out: % Inhibition Avg), 34%; on off-target kinases [4] (read-out: % Inhibition 1), 6%; on off-target kinases [4] (read-out: % Inhibition 2), 10%; on off-target kinases [4] (read-out: % Inhibition Avg) it was 8%. The inhibition on off-target kinases [5] (read-out: % Inhibition 1) is 1%; at off-target kinases [5] (read-out: % Inhibition 2), 3%; on off-target kinases [5] (read-out: % Inhibition Avg) it was 2%; at off-target kinases [6] (read-out: % Inhibition 1), 7%; on off-target kinases [6] (read-out: % Inhibition 2) it was 3%; on off-target kinases [6] (read-out: % Inhibition Avg), 5%. The inhibition at off-target kinases [7] (read-out: % Inhibition 1) was determined as 18%; on off-target kinases [7] (read-out: % Inhibition 2), 19%; on off-target kinases [7] (read-out: % Inhibition Avg) it was 18%; on off-target kinases [8] (read-out: % Inhibition 1), 70%; at off-target kinases [8] (read-out: % Inhibition 2) it was 73%; on off-target kinases [8] (read-out: % Inhibition Avg) it was 71%.

The values above are taken from patent US11572590B2, “Methods for evaluating tumor cell spheroids using 3D microfluidic cell culture device” (Dana-Farber Cancer Institute, Inc., priority 2017, dated 2023).
